Assays:
[1] = system: chronic primary insomnia patients with sleep maintenance difficulties; experiment: Phase III study of doxepin, subjective assessments by morning questionnaire (sWASO, LSO, sTST); details: ITT; for LSO (subjective latency to sleep onset), Mean (SD) / sTST (subjective total sleep time), Mean (SD) / sTST, Median / sWASO (subjective wake after sleep onset), Mean (SD): Baseline (mean of Days −5 and −4)
Description: Patients with at least a 3-month history of primary insomnia, according to Diagnostic and Statistical Manual of Mental Disorders, Fourth Edition Text Revision (DSM-IV-TR)-defined primary insomnia were enrolled.
After the PSG Screening and Baseline periods, patients began a 35-day double-blind treatment period during which they were given study drug supplies at each scheduled visit (Visits 4, 5, and 6). The scheduled study visits consisted of two consecutive nights of 8-hour PSG recording in the sleep center and next day assessments to assess sedative efficacy. Patients were asked to complete hangover/residual effects assessments, morning and evening questionnaires, and the Benzodiazepine Withdrawal Symptom Questionnaire (BWSQ) at each of these visits.
Subjective Variables: Subjective assessments included data obtained on Days 2, 16, and 30, and included subjective TST (sTST), subjective WASO (sWASO), latency to sleep onset (LSO), subjective NAASO (sNAASO), and sleep quality (all assessed by a morning questionnaire), daytime functioning (assessed by an evening questionnaire), average nightly sTST during at-home administration (5 days before the PSG visit), CGI rating scale for Severity and Therapeutic Effect completed by the clinician and patient, and a measure of insomnia severity (assessed by ISI).
Methods used to analyze other endpoints were the same as those used to analyze WASO. For LPS, latency to REM sleep, latency to Stage 2 sleep, and LSO, data were expected to be log-normally distributed and were analyzed using log-transformed values (base 10). The safety data were analyzed primarily using descriptive statistical methods.
All efficacy analyses were performed on the Intent-to-treat (ITT) analysis set. […] Data were analyzed as randomized and based on observed cases.

[2] = Phase III study of doxepin, safety assessments (body weight, residual effects, withdrawal symptoms, laboratory tests, ECG); type: in vivo, human
Description: Safety assessments including adverse events (AEs), vitals, and neurological assessments were performed throughout the study period. Other safety assessments, including clinical laboratory tests, electrocardiograms (ECGs), and physical examinations (PEs) were performed before and after the study treatment period. For early termination, all safety assessments, including AEs neurological assessments, clinical laboratory tests, ECGs, vitals, and PEs were performed.
(§1) Safety: Safety was assessed based on AEs, clinical laboratory tests (hematology, serum chemistry, and urinalysis), vital signs, physical examinations, neurological assessments, 12-lead ECGs, and ratings of hangover/residual effects (digit-symbol substitution test (DSST), symbol copying test (SCT), and the visual analog scale (VAS) for sleepiness), assessment of rebound insomnia using PSG recordings during the discontinuation period, and withdrawal symptoms using the benzodiazepine withdrawal symptom questionnaire (BWSQ).
Safety analyses included all randomized patients who received at least one dose of double-blind study medication. Treatment assignment for safety data was based on the treatment actually received.

[3] = system: chronic primary insomnia patients with sleep maintenance difficulties; experiment: Phase III study of doxepin, rebound insomnia by PSG during the 2-day discontinuation period; type: in vivo, human; details: for WASO (rebound insomnia analysis), Median: Baseline = worst WASO value of Nights −6 and −5; for Rebound insomnia frequency: patients with LPS change from Baseline ≧20 minutes at Visit 7, count (%) / Rebound insomnia frequency: patients with TST change from Baseline ≦−30 minutes at Visit 7, count (%) / Rebound insomnia frequency: patients with WASO change from Baseline ≧35 minutes at Visit 7, count (%): N = 67 evaluable
Text: The term “rebound insomnia” refers to the common occurrence that a person may have more trouble sleeping the first few nights after a sedative medicine is stopped than before starting the medicine. After more than a few days' use, discontinuing a hypnotic or sedative medication can make the original sleep problem worse and can cause an increase anxiety. Rebound insomnia may be measured as the mean change in mean wake time after sleep onset (WASO) from baseline to the first night of discontinuation.
Patients were discharged from the sleep center after all final study-related procedures had been completed on the Final Study Day (Day 38, Early Termination [ET]).
as §1

[4] = Doxepin HCl 3 mg group, Night 36
[5] = Doxepin HCl 3 mg group, Night 36 and Night 37
[6] = Doxepin HCl 3 mg group, Visit 7, Night 37 (discontinuation)
[7] = Doxepin HCl 3 mg group, discontinuation

Question: Which “LSO (subjective latency to sleep onset), Mean (SD)” value ([1]; Doxepin HCl 3 mg group) does the source give for `CN(C)CCC=C1c2ccccc2COc2ccccc21` [Doxepin, 11-(3-dimethylaminopropylidene)-6,11-dihydrodibenzo (b,e)oxepin] here?
Answer: 61.4 (39.43) minutes

Question: And the “sTST (subjective total sleep time), Mean (SD)” value ([1]; Doxepin HCl 3 mg group)?
Answer: 330.0 (63.23) minutes

Question: What about the “sTST, Median” value ([1]; Doxepin HCl 3 mg group) of the same compound?
Answer: 330.0 min

Question: And the “sTST, Mean (SD)” value ([1]; Doxepin HCl 3 mg, Visit 4, Day 2, p 0.0169 vs placebo)?
Answer: 361.8 (64.03) minutes

Question: And the “LSO, Mean (SD)” value ([1]; Doxepin HCl 3 mg, Visit 4, Day 2, p 0.2296 vs placebo)?
Answer: 50.3 (36.73) minutes

Question: And the “sTST, Mean (SD)” value ([1]; Doxepin HCl 3 mg, Visit 5, Day 16, p 0.3260 vs placebo)?
Answer: 361.0 (67.22) minutes

Question: And the “LSO, Mean (SD)” value ([1]; Doxepin HCl 3 mg, Visit 5, Day 16, p 0.9838 vs placebo)?
Answer: 52.9 (35.17) minutes

Question: And the “LSO, Mean (SD)” value ([1]; Doxepin HCl 3 mg, Visit 6, Day 30, p 0.3567 vs placebo)?
Answer: 48.9 (34.71) minutes

Question: What about the “sTST, Mean (SD)” value ([1]; Doxepin HCl 3 mg, Visit 6, Day 30, p 0.9972 vs placebo) of the same compound?
Answer: 360.7 (68.72) minutes

Question: What about the “LSO (subjective latency to sleep onset), Mean (SD)” value ([1]; Doxepin HCl 6 mg group) of the same compound?
Answer: 64.0 (43.45) minutes

Question: What about the “sTST (subjective total sleep time), Mean (SD)” value ([1]; Doxepin HCl 6 mg group) of the same compound?
Answer: 339.3 (61.45) minutes

Question: What about the “sTST, Median” value ([1]; Doxepin HCl 6 mg group) of the same compound?
Answer: 330.0 min

Question: What about the “sTST, Mean (SD)” value ([1]; Doxepin HCl 6 mg, Visit 4, Day 2, p 0.0256 vs placebo) of the same compound?
Answer: 369.0 (78.39) minutes

Question: And the “LSO, Mean (SD)” value ([1]; Doxepin HCl 6 mg, Visit 4, Day 2, p 0.0960 vs placebo)?
Answer: 55.7 (56.96) minutes

Question: What about the “sTST, Mean (SD)” value ([1]; Doxepin HCl 6 mg, Visit 5, Day 16, p 0.1611 vs placebo) of the same compound?
Answer: 371.5 (72.06) minutes

Question: What about the “LSO, Mean (SD)” value ([1]; Doxepin HCl 6 mg, Visit 5, Day 16, p 0.2689 vs placebo) of the same compound?
Answer: 48.7 (42.35) minutes

Question: What about the “sTST, Mean (SD)” value ([1]; Doxepin HCl 6 mg, Visit 6, Day 30, p 0.6831 vs placebo) of the same compound?
Answer: 373.0 (75.30) minutes

Question: What about the “LSO, Mean (SD)” value ([1]; Doxepin HCl 6 mg, Visit 6, Day 30, p 0.8242 vs placebo) of the same compound?
Answer: 48.3 (47.40) minutes

Question: What about the “sWASO (subjective wake after sleep onset), Mean (SD)” value ([1]; doxepin 3 mg group) of the same compound?
Answer: 80.6 (48.12) minutes

Question: What about the “sWASO, Mean (SD)” value ([1]; doxepin 3 mg, Visit 4, Day 2, p 0.0005 vs placebo) of the same compound?
Answer: 55.7 (39.81) minutes

Question: What about the “sWASO, Mean (SD)” value ([1]; doxepin 3 mg, Visit 5, Day 16, p 0.2582 vs placebo) of the same compound?
Answer: 59.0 (54.14) minutes

Question: What about the “sWASO, Mean (SD)” value ([1]; doxepin 3 mg, Visit 6, Day 30, p 0.8958 vs placebo) of the same compound?
Answer: 63.1 (47.24) minutes

Question: What about the “sWASO (subjective wake after sleep onset), Mean (SD)” value ([1]; doxepin 6 mg group) of the same compound?
Answer: 78.2 (43.06) minutes

Question: What about the “sWASO, Mean (SD)” value ([1]; doxepin 6 mg, Visit 4, Day 2, p 0.0007 vs placebo) of the same compound?
Answer: 54.9 (44.76) minutes

Question: And the “sWASO, Mean (SD)” value ([1]; doxepin 6 mg, Visit 5, Day 16, p 0.3357 vs placebo)?
Answer: 58.4 (49.09) minutes

Question: What about the “sWASO, Mean (SD)” value ([1]; doxepin 6 mg, Visit 6, Day 30, p 0.8020 vs placebo) of the same compound?
Answer: 58.2 (53.07) minutes

Question: What about the “Changes in other clinical laboratory tests, vital sign measurements, physical examinations, neurological assessments, or ECG parameters” value ([2]; 3 mg and 6 mg) of the same compound?
Answer: no clinically relevant changes

Question: And the “Next day residual effects” value ([2]; 3 mg and 6 mg)?
Answer: no significant next day residual effects

Question: And the Withdrawal effects ([2]; 3 mg and 6 mg, abrupt discontinuation)?
Answer: no withdrawal effects

Question: What about the “Body Weight, Change from Screening, mean (±SD)” value ([2]; Doxepin HCl 3 mg) of the same compound?
Answer: 0.3 (2.21) kg

Question: And the “Body Weight, Change from Screening, mean (±SD)” value ([2]; Doxepin HCl 6 mg)?
Answer: 0.0 (2.19) kg

Question: What about the “Rebound insomnia (mean change in mean WASO from baseline to the first night of discontinuation)” value ([3]; 3 mg and 6 mg, 2-day discontinuation period following abrupt discontinuation of 35 nights of treatment) of the same compound?
Answer: no rebound insomnia

Question: What about the “Largest percentage of patients experiencing rebound effects” value ([3]; 3 mg group at night 36, as measured by mean change in WASO) of the same compound?
Answer: 15%

Question: What about the “WASO (rebound insomnia analysis), Median” value ([3]; Doxepin HCl 3 mg group) of the same compound?
Answer: 79.5 min

Question: What about the “WASO (rebound insomnia analysis), Mean (SD)” value ([3]; Doxepin HCl 3 mg group, Baseline = worst WASO value of Nights −6 and −5 from Visit 3) of the same compound?
Answer: 83.5 (41.35) minutes

Question: And the “Rebound insomnia frequency: patients with LPS change from Baseline ≧20 minutes at Visit 7, count (%)” value [3, 4]?
Answer: 7 (10%)

Question: What about the “Rebound insomnia frequency: patients with TST change from Baseline ≦−30 minutes at Visit 7, count (%)” value [3, 4] of the same compound?
Answer: 9 (13%)

Question: And the “Rebound insomnia frequency: patients with WASO change from Baseline ≧35 minutes at Visit 7, count (%)” value [3, 4]?
Answer: 10 (15%)

Question: And the “Rebound insomnia frequency: patients with LPS change from Baseline ≧20 minutes at Visit 7, count (%)” value [3, 5]?
Answer: 3 (4%)

Question: And the “Rebound insomnia frequency: patients with TST change from Baseline ≦−30 minutes at Visit 7, count (%)” value [3, 5]?
Answer: 3 (4%)

Question: And the “Rebound insomnia frequency: patients with WASO change from Baseline ≧35 minutes at Visit 7, count (%)” value [3, 5]?
Answer: 1 (1%)

Question: What about the “WASO, Median” value ([3]; Doxepin HCl 3 mg group, Visit 7, Night 36 (discontinuation)) of the same compound?
Answer: 50.5 min

Question: What about the “WASO, Mean (SD)” value ([3]; Doxepin HCl 3 mg group, Visit 7, Night 36 (discontinuation, single-blind placebo after 35 nights of treatment)) of the same compound?
Answer: 65.8 (48.72) minutes

Question: What about the “WASO, Mean (SD)” value [3, 6] of the same compound?
Answer: 58.4 (42.76) minutes

Question: And the “WASO, Median” value [3, 6]?
Answer: 48.8 min

Question: What about the “WASO, Change from Baseline to Visit 7, Night 36, Median” value [3, 7] of the same compound?
Answer: -22.0 min

Question: What about the “WASO, Change from Baseline to Visit 7, Night 37, Median” value [3, 7] of the same compound?
Answer: -20.8 min

Question: And the “WASO, Change from Baseline to Visit 7, Night 36, Mean (SD)” value ([3]; Doxepin HCl 3 mg group, discontinuation, 95% CI (−30.28, −6.57))?
Answer: −18.4 (48.60) minutes

Question: What about the “WASO, Change from Baseline to Visit 7, Night 37, Mean (SD)” value ([3]; Doxepin HCl 3 mg group, discontinuation, 95% CI (−35.26, −14.11)) of the same compound?
Answer: −24.7 (43.02) minutes

Question: And the “WASO (rebound insomnia analysis), Median” value ([3]; Doxepin HCl 6 mg group)?
Answer: 72.5 min
